Test results reported in patent US20080140138A1, “Inhibition of inflammatory cytokine production by stimulation of brain muscarinic receptors” (priority 2002, published 2008).
Structures can show the parent of a compound that is named as a salt.

How the values were obtained:
[1] = tested on: carrageenan-induced hindpaw edema; experiment: Carrageenan-induced hindpaw edema; format: in vivo, Lewis rats
Experimental: Method of determining CNI-1493 receptor binding. CNI-1493 was tested at a single concentration (10 μM) in a panel of receptor binding assays by NovaScreen Biosciences Corporation (Hanover, Md.). Values were expressed as the percent inhibition of specific binding, and represented the average of duplicate tubes. Method of stereotactic intracerebroventricular injections. A rat model of intracerebroventricular (i.c.v.) injections was established in order to be able to directly deliver pharmacological agents into the brain of rats. This was necessary in order to separate drug effects on peripheral inflammation that occurred through central versus peripheral mechanisms. Lewis rats were anaesthetized with urethane (1 g/kg, i.p.) and xylazine (15 mg/rat, i.m. (intramuscular)). Rats were then placed in a stereotactic head frame (Stoelting, Wood Dale, Ill., USA). The incisor bar was adjusted until the plane defined by the lambda and bregma was parallel to the base plate. For i.c.v. injections the needle of a Hamilton syringe (25 μl) was positioned stereotactically above the lateral ventricle (0.2 mm and 1.5 mm posterior to bregma, 3.2 mm below the dura.) Solutions of the drugs tested were prepared in sterile endotoxin-free water, at the specified concentrations, and a 10-μl injection/rat was administered over 2 min, 1 h prior to either carrageenan injection, or to LPS.
The tested drugs, in either the carrageenan and/or LPS experiments, were: saline control; fluoxetine hydrochloride, (also known as Prozak) (0.01 mg/100 g); muscarine (50 μg/rat, 5 μg/rat, 0.5 μg/rat, 0.05 μg/rat, 0.005 μg/rat); 4-(N-[3-chlorophenyl]carbamoyloxy)-2-butynyltrimethylammonium chloride (also known as McN-A-343) (5 μg/rat); Muscarinic Toxin-3, (also known as MT-3) from Dendroaspis angusticeps snake venom (0.37 μg/rat); nicotine (10 μg/rat); CNI-1493 (1 μg/kg, 50 μg/rat); atropine (1 μg/kg, 5 μg/rat); CNI-1493 plus atropine (1 μg/kg of each of the drugs; 50 μg/rat, 5 μg/rat respectively); naloxone hydrochloride (2 μg/rat), CNI-1493 plus naloxone (50 μg/rat+5 μg/rat respectively); and morphine (20 μg/rat).
Method of carrageenan-induced hindpaw edema. Paw edema was induced in anaesthetized rats by injection of 1% solution of 1-carrageenan (100 μl) into the plantar surface of the left hindpaw. The right hindpaw was injected with the same volume of saline alone (as control). The thickness of the carrageenan-treated and saline-treated hindpaw was measured using a caliper at 3 h post carrageenan, and the difference between paw thickness calculated as an index of inflammation (paw swelling). Method of LPS injections and TNF determination. LPS (15 mg/kg, i.v.) was injected in the tail vein 1 h after drug injection. Blood was obtained 2 h post LPS injection by paraorbital bleeding. Serum TNF concentrations were determined by an L929 bioactivity assay. Method of assessing TNF by the L929 bioactivity assay. L929 cells were suspended in Dulbecco's minimal Eagle's medium (DMEM; GibcoBRL) supplemented with fetal bovine serum (10%; Hyclone) and penicillin/streptomycin (0.5%; Sigma Chemical Co.), and plated at 2×10^4 cells per well in 96-well flat-bottomed microtiter plates. After 24 h, media were respirated and replaced with medium containing cycloheximide (10 μg/ml; Sigma Chemical Co.) and the samples to be assayed/TNF standards. Plates were incubated overnight, at which time cell viability as a function of TNF concentration was assessed by the MTT assay. Absorbance values were converted to units per milliliter by comparison with a standard curve for rat TNF.
In a third set of experiments, rats were injected by i.c.v. means with either saline (n=4), CNI-1493 (5 μg/rat, n=3), CNI-1493 plus atropine (5 μg/rat each), or atropine (5 μg/rat). Carrageenan was given to the animals 1 h later, and paw edema was determined 3 h post carrageenan. […]

[2] = tested on: LPS-induced serum TNF; experiment: LPS-induced serum TNF after i.c.v. drug injection, L929 bioactivity assay; format: in vivo, Lewis rats; settings: i.c.v.; for effect in reducing LPS-induced serum TNF levels: nicotine 10 μg/rat, prozak 0.01 mg/10 g, LPS 15 mg/kg i.v. 1 h later
Experimental: Method of stereotactic intracerebroventricular injections. […] Lewis rats were anaesthetized with urethane (1 g/kg, i.p.) and xylazine (15 mg/rat, i.m. (intramuscular)). Rats were then placed in a stereotactic head frame (Stoelting, Wood Dale, Ill., USA). The incisor bar was adjusted until the plane defined by the lambda and bregma was parallel to the base plate. For i.c.v. injections the needle of a Hamilton syringe (25 μl) was positioned stereotactically above the lateral ventricle (0.2 mm and 1.5 mm posterior to bregma, 3.2 mm below the dura.) Solutions of the drugs tested were prepared in sterile endotoxin-free water, at the specified concentrations, and a 10-μl injection/rat was administered over 2 min, 1 h prior to either carrageenan injection, or to LPS.
In one set of experiments, rats were injected by i.c.v. means with either saline (n=1), CNI-1493 (5 μg/rat, n=3), CNI-1493 plus atropine (5 μg/rat each), or atropine (5 μg/rat). LPS (15 mg/kg, i.v.) was given 1 h later. Blood was collected 2 h post LPS administration. Serum TNF was determined by the L929 assay.

[3] = tested on: carrageenan-induced paw edema; settings: low doses, direct administration to the brain; cited from earlier work
[4] = tested on: LPS-induced TNF; experiment: LPS-induced TNF in serum and tissues after muscarine, ELISA; format: in vivo, rats; settings: for LPS-induced heart TNF levels: heart tissue
Experimental: Methods of stereotactic intracerebroventricular injection of muscarine into rats and LPS injections were as described in Example 1. TNF levels in serum and tissues were determined using an enzyme-inked immunosorbent assay (ELISA) according to the manufacturere's instructions (R & D Systems (Minneapolis, Minn.)).
Rats were injected by i.c.v. means with either saline (control) or muscarine (0.005 μg/kg body weight, 0.5 μg/kg body weight, 5.0 μg/kg body weight, or 50 μg/kg body weight). LPS was administered 1 hour later. Two hours after LPS administration the rats were sacrificed and blood, heart tissue, and spleen tissue were isolated from the rats. As shown in FIGS. 9A-9C, i.c.v. administration of muscarine inhibited LPS-induced serum, heart, and spleen (peripheral) TNF levels.
Methods of LPS injections were as described in Example 1. Determination of serum and tissue TNF levels were as described in Example 4. Muscarine (or control saline) was intravenously injected into rats at concentrations of 0.05 μg/kg body weight, 0.5 μg/kg body weight, or 5.0 μg/kg body weight.
Rats were injected by i.v. means with either saline (control) or muscarine (0.05 μg/kg body weight, 0.5 μg/kg body weight, or 5.0 μg/kg body weight). LPS was administered 1 hour later. Two hours after LPS administration the rats were sacrificed and blood, liver tissue, heart tissue, and spleen tissue were isolated from the rats and assayed for TNF concentrations. As shown in FIGS. 10A-10D, intravenous administration of muscarine had no effect on LPS-induced serum, liver, heart, and spleen TNF levels.

[5] = muscarine i.c.v. 0.005-50 μg/kg body weight
[6] = muscarine i.v. 0.05, 0.5, 5.0 μg/kg body weight

SMILES: C[N+](C)(C)CC#CCOC(=O)Nc1cccc(Cl)c1.[Cl-] [McN-A-343, 4-(N-[3-chlorophenyl]carbamoyloxy)-2-butynyltrimethylammonium chloride]
- inhibition of paw edema, i.c.v. compared with i.p. administration ([1]; 5 μg/rat i.c.v. versus 5 mg/kg i.p.): comparable effect on inhibition of carrageenan-induced paw edema as a higher dose administered intraperitoneally
- inhibition of carrageenan-induced paw edema ([1]; i.c.v., McN-A-343 5 μg/rat, MT-3 0.37 μg/rat): significantly inhibits

SMILES: CN1[C@@H]2CC[C@H]1C[C@@H](OC(=O)C(CO)c1ccccc1)C2 (stereo partly shown) [atropine]
- effect of atropine on CNI-1493 inhibition of LPS-induced serum TNF ([2]; CNI-1493 plus atropine, 5 μg/rat each): reversed the inhibitory effect of CNI-1493 to the TNF level of atropine alone
- effect of atropine on CNI-1493 inhibition of paw edema ([1]; CNI-1493 plus atropine, 5 μg/rat each, i.c.v.): reverses the effect

SMILES: C[N+](C)(C)CCOC(N)=O [carbachol]
- effect on carrageenan-induced paw edema [3]: attenuation of paw edema

SMILES: C[C@@H]1O[C@H](C[N+](C)(C)C)C[C@H]1O [muscarine]
- effect of vagotomy on muscarine inhibition of paw edema ([1]; muscarine 0.5 μg/rat i.c.v., bilateral cervical vagotomy, P=0.015 SAL v. MUS, P=0.039 MUS v. MUS-VGX): Vagotomy clearly abrogates the inhibitory effects
- inhibition of carrageenan-induced paw edema ([1]; muscarine i.c.v. 5, 0.5, 0.05, 0.005 μg/rat): significantly inhibits carrageenan-induced paw edema in a dose-dependent manner
- LPS-induced heart TNF levels [4, 5]: inhibited
- LPS-induced serum TNF levels [4, 5]: inhibited
- LPS-induced spleen TNF levels [4, 5]: inhibited
- LPS-induced heart TNF levels [4, 6]: no effect
- LPS-induced liver TNF levels ([4]; muscarine i.v. 0.05, 0.5, 5.0 μg/kg body weight, liver): no effect
- LPS-induced serum TNF levels [4, 6]: no effect
- LPS-induced spleen TNF levels [4, 6]: no effect

SMILES: CN1CCCC1c1cccnc1 (stereo not shown) [nicotine]
- effect in reducing LPS-induced serum TNF levels [2]: Neither nicotine nor prozak had any effect

SMILES: CNCCC(Oc1ccc(C(F)(F)F)cc1)c1ccccc1 (stereo not shown) [prozak, fluoxetine hydrochloride]
- effect in reducing LPS-induced serum TNF levels [2]: Neither nicotine nor prozak had any effect
